Results on 2 compounds are retold here after patent US10813903B2, “Compositions comprising 15-HEPE and methods of using the same” (Afimmune Limited, priority 2013, dated 2020).

In the experiment the test system is STAM model of Non-alcoholic Steatohepatitis. Put plainly: in vivo efficacy study of 15-OHEPA and EPA in STAM model of non-alcoholic steatohepatitis. Further details: species or system C57BL/6 mice. To be noted: for liver weight as compared to the vehicle control: FIG. 1.2; for NAFLD Activity score (NAS) as compared to the vehicle control: HE staining, FIGS. 2.1 and 2.2. An excerpt:
The purpose of this study was to examine the effects of 15-OHEPA and EPA in the STAM model of Non-alcoholic Steatohepatitis. Pathogen-free15-day-pregnant C57BL/6 mice were obtained from Charles River Laboratories in Japan Inc. (Kanagawa, Japan). NASH was established in male mice by a single subcutaneous injection of streptozotocin (STZ) (Sigma, USA) after birth and feeding with a high fat diet (HFD; CLEA) Japan, Japan) ad libitum after 4 weeks of age (day 28±2). Mice were randomized into 5 groups of 8 mice at 5 weeks of age (day 35±2) the day before the start of treatment. During the treatment period, individual body weight was measured daily as well as clinical signs of behavior and survival. Group 1 (Vehicle): Eight NASH mice were orally administered vehicle [olive oil] in a volume of 10 mL/kg once daily from 5 to 9 weeks of age. Group 2 (15-OHEPA 50 mg/kg): Eight NASH mice were orally administered vehicle supplemented with 15-OHEPA at a dose of 50 mg/kg once daily from 5 to 9 weeks of age. Group 3 (15-OHEPA 500 mg/kg): Eight NASH mice were orally administered vehicle supplemented with 15-OHEPA at a dose of 500 mg/kg once daily from 5 to 9 weeks of age. Group 4 (EPA 500 mg/kg): Eight NASH mice were orally administered vehicle supplemented with EPA at a dose 500 mg/kg once daily from 5 to 9 weeks of age. Group 5 (positive control): Eight NASH mice were orally administered pure water supplemented with Telmisartan at a dose of 10 mg/kg once daily from 5 to 9 weeks of age. At 9 weeks of age, all mice were sacrificed and the following data was recorded; • Individual liver weight • Liver to body weight ratio Histopathological analyses of liver sections were performed using HE staining (to estimate NAFLD Activity score). For HE staining, sections were cut from paraffin blocks of liver tissue prefixed in Bouin's solution and stained with Lillie-Mayer's Hematoxylin (Muto Pure Chemicals, Japan) and eosin solution (Wako Pure Chemical Industries). NAFLD Activity score (NAS) was calculated according to the criteria of Kleiner (Kleiner D E. et al., Hepatology, 2005; 41:1313). Statistical tests were performed using Bonferroni Multiple Comparison Test. P values <0.05 were considered statistically significant.

The mark [1] stands for this setting: positive control, Telmisartan 10 mg/kg oral once daily from 5 to 9 weeks of age.
The mark [2] stands for this setting: 15-OHEPA 500 mg/kg oral once daily from 5 to 9 weeks of age.

Regarding `CCCc1nc2c(C)cc(-c3nc4ccccc4n3C)cc2n1Cc1ccc(-c2ccccc2C(=O)O)cc1` [telmisartan, Telmisartan, reference compound], under setting [1], the “liver weight as compared to the vehicle control” value is on record as “significant reduction” and the “NAFLD Activity score (NAS) as compared to the vehicle control” value is given as “significantly decreased”.
With `CCC=CCC(O)C=CC=CCC=CCC=CCCCC(=O)O` (centres unmarked) [15-OHEPA, 15-Hydroxy-eicosa-5,8,11,13,17-pentaenoic acid], under setting [2], the “liver weight as compared to the vehicle control” value is recorded as “significant reduction” and the “NAFLD Activity score (NAS) as compared to the vehicle control” value is on record as “significantly decreased”. Further, where the note is “summary statement”, the “potency in the treatment of FLD relative to EPA” value is reported as “more potent than EPA”.
